Key:
[1] = Cellular growth inhibition, T-Rex 293 SC cells with doxycycline (progesterone receptor isoform B induced), Example 47; format: cell-based; settings: progesterone receptor isoform B induced with 10 ng/mL doxycycline, 72 hours, CellTiter-Glo 2.0, Table 14 (Example 47)
Method: The following types of cells were prepared for this experiment: (i) a T-Rex 293 cell line having increased expression of progesterone receptor isoform B protein due to exposure to doxycycline and (ii) a T-Rex 293 cell line lacking increased expression of progesterone receptor isoform B protein. Ability of the test compounds to inhibit proliferation of the foregoing cell types was evaluated according to the procedures set forth below.
The doxycycline-inducible progesterone receptor isoform B protein expressing cell line was established using the following protocol: T-Rex 293 cells were purchased from Invitrogen (Cat #R71007) and transfected using Lipofectamine 2000 with the wild-type progesterone receptor B protein sequence cloned into the pcDNA4/TO vector. Transfected cells were selected using 400 μg/mL Zeocin (Invitrogen Cat #R25001). Following selection, single clones were raised and maintained in Dulbecco's Modified Eagle Medium (DMEM) supplemented with 10% w/w Tetracycline-free fetal bovine serum (FBS) and 250 μg/mL Zeocin. Clones were analyzed for expression of progesterone receptor isoform B protein in the presence and absence of 10 ng/mL doxycycline (Sigma Cat #D9891), and a single doxycycline-inducible clone (hereinafter “SC”) was selected for use in downstream assays.
The SC cells were seeded on poly-D-lysine coated, black clear-bottom 384-well plates at 2500/well, in 25 μL Phenol Red Free Dulbecco's Modified Eagle Medium (DMEM) supplemented with 10% w/w charcoal-dextran treated fetal bovine serum (FBS) and 1% w/w pen-strep, with or without 10 ng/mL doxycycline. Pen-Strep is a commercially available mixture of penicillin G and streptomycin, which is used in mammalian cell culture media to prevent bacterial contamination. Phenol Red Free Dulbecco's Modified Eagle Medium (DMEM) supplemented with 10% w/w charcoal-dextran treated fetal bovine serum (FBS) and 1% w/w pen-strep, with or without 10 ng/mL doxycycline is herein referred to as Treatment Medium. Following seeding of cells in the plates, the plates were spun at 300×g for 30 seconds, then equilibrated to room temperature for 30 minutes, and then deposited in a humidified tissue culture incubator maintained at 37° C. with 5% CO2.
At 24 hours after seeding of the cells, dilutions of test compound were prepared in DMSO and dissolved in Treatment Medium, to achieve a final DMSO concentration of 0.5% w/w, thereby providing the Test Compound Solution. A 25 μL aliquot of the Test Compound Solution was added to cells in the well plates. An equal volume of a solution containing DMSO and Treatment Medium was used as a negative control. Following treatment of cells with Test Compound Solution or said equal volume of a solution containing DMSO and Treatment Medium, the plates were spun at 300×g for 30 seconds, and then left in an incubator for 72 hours.
At the end of the treatment duration, cell viability was quantified with CellTiter-Glo 2.0 reagent (Promega Cat #G9243). For this purpose, plates were equilibrated to room temperature for 30 minutes, and then 25 μL of CellTiter-Glo 2.0 reagent was added to cells in the plate wells. Plates were then agitated on a shaker for two minutes at 500 rpm and subsequently incubated at room temperature for 10 minutes. Following incubation, the plates were spun at 3000×g for 30 seconds, then sealed with an optical adhesive cover, and luminescence readings were measured with an EnVision Plate Reader (Perkin Elmer).
Data was normalized using zero luminescence for baseline. A four-parameter non-linear regression curve fit was applied to dose-response data in GraphPad Prism data analysis software to determine the half-maximal growth inhibitory concentration (GI50) for each test compound.

[2] = target: T1, progesterone receptor ligand binding domain (LBD) (Homo sapiens, UniProt P06401); assay: FP assay (PolarScreen Progesterone Receptor Competitor Assay) for binding to progesterone receptor LBD; settings: GST-tagged PR LBD, Fluormone tracer, fluorescence polarization, 2 hours; Table 17
T1 construct: GST-tagged PR LBD, Fluormone tracer, and compound were mixed; purchased Life Technologies A15905 or a15906
T1 sequence (P06401 679-913 limits assumed): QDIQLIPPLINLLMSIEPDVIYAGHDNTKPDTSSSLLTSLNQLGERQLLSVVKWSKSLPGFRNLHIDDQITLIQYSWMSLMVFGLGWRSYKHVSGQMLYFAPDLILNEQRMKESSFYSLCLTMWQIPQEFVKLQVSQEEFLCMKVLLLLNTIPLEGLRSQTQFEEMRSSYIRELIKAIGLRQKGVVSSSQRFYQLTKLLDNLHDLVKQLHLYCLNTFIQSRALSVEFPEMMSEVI
Method: Compounds were tested using the PolarScreen™ Progesterone Receptor Competitor Assay Kit (Life Technologies Cat #A15905 or a15906), as per the manufacturer's instructions. Briefly, GST-tagged PR LBD, Fluormone tracer, and compound were mixed and incubated for 2 hours at room temperature in the dark. Following incubation, the plates were spun at 3000×g for 30 seconds, then sealed with an optical adhesive cover, and fluorescence polarization was measured using appropriate excitation and emission filters with an EnVision Plate Reader (Perkin Elmer). Compound concentration vs. mP value were plotted in Prism (GraphPad). A four-parameter non-linear regression curve fit was applied to dose-response data to determine the half-maximal inhibitory concentration (IC50) for each test compound.

BRD4-BD2 = target: T2, BRD4-BD2 (Homo sapiens, UniProt O60885); assay: bromoKdELECT assay for binding affinity to BRD4-BD2; settings: Table 7
T2 construct: made in house; host or cells: T7 phage grown in an E. coli host derived from BL21
Method: Compounds were tested using a bromoKdELECT assay. T7 phage strains displaying bromodomains were grown in parallel in 24-well blocks in an E. coli host derived from the BL21 strain. E. coli were grown to log-phase and infected with T7 phage from a frozen stock (multiplicity of infection=0.4) and incubated with shaking at 32° C. until lysis (90-150 minutes). The lysates were centrifuged (5,000×g) and filtered (0.2 μm) to remove cell debris. Streptavidin-coated magnetic beads were treated with biotinylated small molecule or acetylated peptide ligands for 30 minutes at room temperature to generate affinity resins for bromodomain assays. The liganded beads were blocked with excess biotin and washed with blocking buffer (SeaBlock (Pierce), 1% BSA, 0.05% Tween 20, 1 mM DTT) to remove unbound ligand and to reduce nonspecific phage binding. Binding reactions were assembled by combining bromodomains, liganded affinity beads, and test compounds in 1× binding buffer (17% SeaBlock, 0.33×PBS, 0.04% Tween 20, 0.02% BSA, 0.004% Sodium azide, 7.4 mM DTT). Test compounds were prepared as 1000× stocks in 100% DMSO. Kds were determined using an 11-point 3-fold compound dilution series with one DMSO control point. All compounds for Kd measurements are distributed by acoustic transfer (non-contact dispensing) in 100% DMSO. The compounds were then diluted directly into the assays such that the final concentration of DMSO was 0.09%. All reactions performed in polypropylene 384-well plates. Each was a final volume of 0.02 ml. The assay plates were incubated at room temperature with shaking for 1 hour and the affinity beads were washed with wash buffer (1×PBS, 0.05% Tween 20). The beads were then resuspended in elution buffer (1×PBS, 0.05% Tween 20, 2 μM non-biotinylated affinity ligand) and incubated at room temperature with shaking for 30 minutes. The bromodomain concentration in the eluates was measured by qPCR.

IC50 [2] | Kd (BRD4-BD2) | SMILES | GI50 [1]
 |  | Cc1sc2c(c1C)C(c1ccc(Cl)cc1)=N[C@@H](CC(=O)NCCOCCOCCOCCOCCN(C)c1ncc(C(=O)N[C@H]3C(C)(C)[C@H](Oc4ccc(C#N)c(Cl)c4)C3(C)C)cn1)c1nnc(C)n1-2 [Compound I-3, N-((1r,3r)-3-(3-chloro-4-cyanophenoxy)-2,2,4,4-tetramethylcyclobutyl)-2-((1-((S)-4-(4-chlorophenyl)-2,3,9-trimethyl-6H-thieno[3,2-f][1,2,4]triazolo[4,3-a][1,4]diazepin-6-yl)-2-oxo-6,9,12,15-tetraoxa-3-azaheptadecan-17-yl)(methyl)amino)pyrimidine-5-carboxamide] | < 500 nM
 |  | Cc1sc2c(c1C)C(c1ccc(Cl)cc1)=N[C@@H](CC(=O)NCCOCCOCCOCCOCCOCCOCCN(C)c1ncc(C(=O)N[C@H]3C(C)(C)[C@H](Oc4ccc(C#N)c(Cl)c4)C3(C)C)cn1)c1nnc(C)n1-2 [Compound I-4] | < 500 nM
 |  | Cc1sc2c(c1C)C(c1ccc(Cl)cc1)=N[C@@H](CC(=O)NCCOC1CCN(c3ncc(C(=O)N[C@H]4C(C)(C)[C@H](Oc5ccc(C#N)c(Cl)c5)C4(C)C)cn3)CC1)c1nnc(C)n1-2 [Compound I-6] | < 500 nM
 |  | Cc1sc2c(c1C)C(c1ccc(Cl)cc1)=N[C@@H](CC(=O)NCCOCCOCCOCCOCCOC1CCN(c3ncc(C(=O)N[C@H]4C(C)(C)[C@H](Oc5ccc(C#N)c(Cl)c5)C4(C)C)cn3)CC1)c1nnc(C)n1-2 [Compound I-8] | < 500 nM
 |  | Cc1sc2c(c1C)C(c1ccc(Cl)cc1)=N[C@@H](CC(=O)NCCOCCOCCOCCOC1CCN(c3ncc(C(=O)N[C@H]4C(C)(C)[C@H](Oc5ccc(C#N)c(Cl)c5)C4(C)C)cn3)CC1)c1nnc(C)n1-2 [Compound I-11] | < 500 nM
 |  | Cc1sc2c(c1C)C(c1ccc(Cl)cc1)=N[C@H](CC(=O)NCCOCCOCCOCCOC1CCN(c3ncc(C(=O)N[C@H]4C(C)(C)[C@H](Oc5ccc(C#N)c(Cl)c5)C4(C)C)cn3)CC1)c1nnc(C)n1-2 [Compound I-13] | < 500 nM
 |  | Cc1sc2c(c1C)C(c1ccc(Cl)cc1)=N[C@H](CC(=O)NCCOCCOCCOCCOCCOC1CCN(c3ncc(C(=O)N[C@H]4C(C)(C)[C@H](Oc5ccc(C#N)c(Cl)c5)C4(C)C)cn3)CC1)c1nnc(C)n1-2 [Compound I-14] | < 500 nM
 |  | Cc1sc2c(c1C)C(c1ccc(Cl)cc1)=N[C@@H](CC(=O)NCCOCCOCCOCC1CCN(c3ncc(C(=O)N[C@H]4C(C)(C)[C@H](Oc5ccc(C#N)c(Cl)c5)C4(C)C)cn3)CC1)c1nnc(C)n1-2 [Compound I-17] | 500 to 1500 nM
 |  | Cc1sc2c(c1C)C(c1ccc(Cl)cc1)=N[C@H](CC(=O)NCCOCCOCCOCCOCCN(C)c1ncc(C(=O)N[C@H]3C(C)(C)[C@H](Oc4ccc(C#N)c(Cl)c4)C3(C)C)cn1)c1nnc(C)n1-2 [Compound I-19] | 500 to 1500 nM
 |  | Cc1sc2c(c1C)C(c1ccc(OC3CC4(CCN(c5ncc(C(=O)N[C@H]6C(C)(C)[C@H](Oc7ccc(C#N)c(Cl)c7)C6(C)C)cn5)CC4)C3)cc1)=N[C@@H](Cc1ncco1)c1nnc(C)n1-2 [Compound I-49, N-[3-(3-chloro-4-cyano-phenoxy)-2,2,4,4-tetramethyl-cyclobutyl]-2-[2-[4-[(9S)-4,5,13-trimethyl-9-(oxazol-2-ylmethyl)-3-thia-1,8,11,12-tetrazatricyclo[8.3.0.02,6]trideca-2(6),4,7,10,12-pentaen-7-yl]phenoxy]-7-azaspiro[3.5]nonan-7-yl]pyrimidine-5-carboxamide] | < 500 nM
50 to 500 nM |  | CCNC(=O)C[C@@H]1N=C(c2ccc(CCCN(C)c3ncc(C(=O)N[C@H]4C(C)(C)[C@H](Oc5ccc(C#N)c(Cl)c5)C4(C)C)cn3)cc2)c2c(sc(C)c2C)-n2c(C)nnc21 [Compound I-104] | 
50 to 500 nM | 50 to 500 nM | CCNC(=O)C[C@@H]1N=C(c2ccc(N3CCN(CC4CCN(c5ncc(C(=O)N[C@H]6C(C)(C)[C@H](Oc7ccc(C#N)c(Cl)c7)C6(C)C)cn5)CC4)CC3)cc2)c2c(sc(C)c2C)-n2c(C)nnc21 [Compound I-105, N-[3-(3-chloro-4-cyano-phenoxy)-2,2,4,4-tetramethyl-cyclobutyl]-2-[4-[[4-[4-[(9S)-9-[2-(ethylamino)-2-oxo-ethyl]-4,5,13-trimethyl-3-thia-1,8,11,12-tetrazatricyclo[8.3.0.02,6]trideca-2(6),4,7,10,12-pentaen-7-yl]phenyl]piperazin-1-yl]methyl]-1-piperidyl]pyrimidine-5-carboxamide] | 
< 50 nM |  | CCNC(=O)C[C@@H]1N=C(c2ccc(N(C3CC3)C3CN(CC4CCN(c5ncc(C(=O)N[C@H]6C(C)(C)[C@H](Oc7ccc(C#N)c(Cl)c7)C6(C)C)cn5)CC4)C3)cc2)c2c(sc(C)c2C)-n2c(C)nnc21 [Compound I-129] | 
< 50 nM |  | CCNC(=O)C[C@@H]1N=C(c2ccc(N(C)C3CC(OC4CCN(c5ncc(C(=O)N[C@H]6C(C)(C)[C@H](Oc7ccc(C#N)c(Cl)c7)C6(C)C)cn5)CC4)C3)cc2)c2c(sc(C)c2C)-n2c(C)nnc21 (stereo partly shown) [Compound I-130] | 
50 to 500 nM |  | Cc1sc2c(c1C)C(c1ccc(OC3CC4(CCN(c5ncc(C(=O)N[C@H]6C(C)(C)[C@H](Oc7ccc(C#N)c(Cl)c7)C6(C)C)cn5)CC4)C3)cc1)=NC(Cc1ncco1)c1nnc(C)n1-2 (stereo partly shown) [Compound I-166] | 

Source: patent US20260062422A1 (Halda Therapeutics OpCo, Inc., priority 2022, published 2026)
